In the RepoRT retention time repository:

experiment: HILIC, Waters Atlantis Premier BEH Z-HILIC, 100 × 2.1 mm, 1.7 µm, 40 °C, 0.17 mL/min, estimated dead time 1.3 min; A: water + 20 mM ammonium carbonate + 5 µM medronic acid; B: 10% water + 90% acetonitrile + 2 mM ammonium carbonate + 0.5 µM medronic acid; gradient (min/%B) 0/100 18/60 18.1/20 21.5/20 22/100 23.5/100 25.5/100; conditions: stereoisomer not certain

LC retention time [min] | Compound
9.07 | O=C(O)CCC(=O)C(=O)O [2-Oxoglutaric acid]
9.81 | O=C(O)CCC(O)C(=O)O (centres undefined) [2-hydroxy glutaric acid]
11 | Nc1ncnc2c1ncn2C1OC(COP(=O)(O)OP(=O)(O)O)C(O)C1O (centres undefined) [ADP]
8.86 | Nc1ncnc2c1ncn2C1OC(COP(=O)(O)O)C(O)C1O (centres undefined) [AMP]
13 | Nc1ncnc2c1ncn2C1OC(COP(=O)(O)OP(=O)(O)OP(=O)(O)O)C(O)C1O (centres undefined) [ATP]
10.5 | CC(=O)SCCNC(=O)CCNC(=O)C(O)C(C)(C)COP(=O)(O)OP(=O)(O)OCC1OC(n2cnc3c(N)ncnc32)C(O)C1OP(=O)(O)O (centres undefined) [Acetyl-CoA]
4.21 | Nc1ncnc2c1ncn2C1OC(CO)C(O)C1O (centres undefined) [Adenosine]
4.19 | O=C(O)CCCCC1SCC2NC(=O)NC21 (centres undefined) [Biotin]
9.73 | C[N+](C)(C)CC(O)CC(=O)[O-] (centres undefined) [Carnitine]
13.9 | O=C(O)CC(O)(CC(=O)O)C(=O)O [Citric acid]
11.9 | CC(C)(COP(=O)(O)OP(=O)(O)OCC1OC(n2cnc3c(N)ncnc32)C(O)C1OP(=O)(O)O)C(O)C(=O)NCCC(=O)NCCS (centres undefined) [CoenzymeA]
7.12 | Cc1cc2nc3c(=O)[nH]c(=O)nc-3n(CC(O)C(O)C(O)COP(=O)(O)OP(=O)(O)OCC3OC(n4cnc5c(N)ncnc54)C(O)C3O)c2cc1C (centres undefined) [FAD]
10.9 | O=C(CO)C(O)C(O)C(O)COP(=O)(O)O (centres undefined) [Fructose 6-phosphate]
15.2 | O=P(O)(O)OCC1OC(O)(COP(=O)(O)O)C(O)C1O (centres undefined) [Fructose-1,6-bisphosphate]
15.3 | Nc1nc2c(ncn2C2OC(COP(=O)(O)OP(=O)(O)OP(=O)(O)O)C(O)C2O)c(=O)[nH]1 (centres undefined) [GTP]
12.4 | O=P(O)(O)OCC1OC(O)C(O)C(O)C1O (centres undefined) [Glucose-6-phosphate]
9.15 | NC(CCC(=O)O)C(=O)O (centres undefined) [Glutamic acid]

LC retention time [min] | Compound
10.4 | NC(=O)CCC(N)C(=O)O (centres undefined) [Glutamine]
9.75 | O=P(O)(O)OCC(O)CO (centres undefined) [Glycerol-3-phosphate]
7.55 | OCC1OC(O)C(O)C(O)C1O (centres undefined) [Hexose]
14.5 | O=C(O)CC(C(=O)O)C(O)C(=O)O (centres undefined) [Isocitric acid]
5.97 | CCC(C)C(N)C(=O)O (centres undefined) [Isoleucine]
2.96 | CC(O)C(=O)O (centres undefined) [Lactic Acid]
5.72 | CC(C)CC(N)C(=O)O (centres undefined) [Leucine]
8.45 | NC(=O)C1=CN(C2OC(COP(=O)(O)OP(=O)(O)OCC3OC(n4cnc5c(N)ncnc54)C(O)C3O)C(O)C2O)C=CC1 (centres undefined) [NADH]
13.4 | NC(=O)c1ccc[n+](C2OC(COP(=O)(O)OP(=O)(O)OCC3OC(n4cnc5c(N)ncnc54)C(OP(=O)(O)O)C3O)C(O)C2O)c1 (centres undefined) [NADP]
10.7 | NC(=O)c1ccc[n+](C2OC(COP(=O)(O)OP(=O)(O)OCC3OC(n4cnc5c(N)ncnc54)C(O)C3O)C(O)C2O)c1 (centres undefined) [NAD]
13.8 | C=C(OP(=O)(O)O)C(=O)O [PEP]
12.2 | O=C(O)C(CO)OP(=O)(O)O (centres undefined) [Phosphoglyceric acid A]
9.16 | O=C(O)CCC(=O)O [Succinic Acid]
9.76 | O=C(CO)COP(=O)(O)O [Triose phosphate]
9.68 | CC(=O)NC1C(OP(=O)(O)OP(=O)(O)OCC2OC(n3ccc(=O)[nH]c3=O)C(O)C2O)OC(CO)C(O)C1O (centres undefined) [UDP-GlcNAc]
6.63 | CCC(=O)OC(CC(=O)[O-])C[N+](C)(C)C (centres undefined) [carnitine-C3]
4.87 | O=C1CC(C(=O)O)NC(=O)N1 (centres undefined) [dihydroorotic acid]
